Reference: patent US20250026752A1, “POSITIVE ALLOSTERIC MODULATORS OF THE MUSCARINIC ACETYLCHOLINE RECEPTOR M4” (Vanderbilt University, priority 2021, published 2025)

Target: T1, human mAChR M4 (Homo sapiens, UniProt P08173)
T1 construct: expressed in transfected cells; host or cells: CHO-K1 (ATCC), stably expressing hM4 and Gqi5
T1 sequence (P08173 1-479): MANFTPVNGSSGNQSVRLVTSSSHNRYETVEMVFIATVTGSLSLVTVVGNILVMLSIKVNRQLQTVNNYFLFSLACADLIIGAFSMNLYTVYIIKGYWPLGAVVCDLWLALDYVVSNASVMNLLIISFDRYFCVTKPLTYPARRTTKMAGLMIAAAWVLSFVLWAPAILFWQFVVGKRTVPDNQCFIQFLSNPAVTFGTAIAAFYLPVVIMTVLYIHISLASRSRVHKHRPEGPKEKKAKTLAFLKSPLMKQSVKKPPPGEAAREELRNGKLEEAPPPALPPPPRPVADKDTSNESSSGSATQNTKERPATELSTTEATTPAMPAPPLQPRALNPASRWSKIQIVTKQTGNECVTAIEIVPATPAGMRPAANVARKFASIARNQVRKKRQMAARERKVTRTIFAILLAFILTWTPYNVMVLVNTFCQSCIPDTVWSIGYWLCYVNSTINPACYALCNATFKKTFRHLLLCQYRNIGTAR
Assay: mAChR M4 cell-based functional assay: calcium flux (Fluo-4, FDSS), positive allosteric modulator activity on the EC20 acetylcholine response, hM4-Gqi5 CHO-K1 cells
Conditions: for Emax at 30 µM: CHO-K1, human M4, % ACh maximum at 30 μM; for EC50: human M4, PAM activity on EC20 acetylcholine response, calcium flux, read-out: Human M4 EC50
Method in brief: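 CHO-K1 cells stably expressing human M4 with chimeric Gqi5, loaded with Fluo-4 AM for 50 min at 37° C. Compounds (11-point, 1:3 dilutions) added first, then an acetylcholine EC20 at 144 s; calcium read on FDSS at 1 Hz. EC50 is the half-maximal increase above the EC20 baseline, four-parameter logistic fit.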

Row | Structure (SMILES) | Emax at 30 µM [%] | EC50 [µM]
1 | COc1cc2c(N3CCc4ncc(-c5cn(C)nc5C)cc4C3)nc(C)nc2cc1F [Compound 61, 4-[3-(1,3-dimethylpyrazol-4-yl)-7,8-dihydro-5H-1,6-naphthyridin-6-yl]-7-fluoro-6-methoxy-2-methyl-quinazoline] | 57 | 0.45
2 | Cc1noc(C)c1-c1cnc2c(c1)CN(c1nc(Cl)nc3ccc(F)cc13)CC2 [Compound 29, 4-[6-(2-chloro-6-fluoro-quinazolin-4-yl)-7,8-dihydro-5H-1,6-naphthyridin-3-yl]-3,5-dimethyl-isoxazole] | 97 | 0.26
3 | Cc1nc(N2CCc3ncc(C(F)(F)F)cc3C2)c2c(Cl)cccc2n1 [Compound 132, 5-chloro-2-methyl-4-[3-(trifluoromethyl)-7,8-dihydro-5H-1,6-naphthyridin-6-yl]quinazoline] | 32 | > 10
4 | FC(F)(F)c1cnc2c(c1)CN(c1nc(Cl)nc3ccc(C(F)(F)F)cc13)CC2 [Compound 135, 2-chloro-6-(trifluoromethyl)-4-[3-(trifluoromethyl)-7,8-dihydro-5H-1,6-naphthyridin-6-yl]quinazoline] | 91 | 1.66
5 | Cc1nc(N2CCc3ncc(C(F)(F)F)cc3C2)c2cc(C3CC3)ccc2n1 [Compound 143, 6-cyclopropyl-2-methyl-4-[3-(trifluoromethyl)-7,8-dihydro-5H-1,6-naphthyridin-6-yl]quinazoline] | 77 | 1.42
6 | Cc1nc(N2CCc3ncc(-c4cc(F)ccc4C)cc3C2)c2cc(Cl)ccc2n1 [Compound 303, 6-chloro-4-(3-(5-fluoro-2-methylphenyl)-7,8-dihydro-1,6-naphthyridin-6(5H)-yl)-2-methylquinazoline] | 91 | 9.2
7 | Cc1nc(N2Cc3cc(C(F)(F)F)cnc3C(C)C2)c2cc(F)ccc2n1 (stereo not drawn) [Compound 157, 6-fluoro-2-methyl-4-[8-methyl-3-(trifluoromethyl)-7,8-dihydro-5H-1,6-naphthyridin-6-yl]quinazoline] | 95 | 0.22
8 | Cc1ccc(-c2cnc3c(c2)CN(c2ncnc4ccc(Cl)cc24)CC3)cn1 [Compound 43, 6-chloro-4-[3-(6-methyl-3-pyridyl)-7,8-dihydro-5H-1,6-naphthyridin-6-yl]quinazoline] | 79 | 0.07
9 | Cn1nccc1Nc1nc(N2CCc3ncc(C(F)(F)F)cc3C2)c2cc(F)ccc2n1 [Compound 197, 6-fluoro-N-(2-methylpyrazol-3-yl)-4-[3-(trifluoromethyl)-7,8-dihydro-5H-1,6-naphthyridin-6-yl]quinazolin-2-amine] | 98 | 0.34
10 | [2H]c1nc(N2CCc3ncc(C(F)(F)F)cc3C2)c2cc(F)ccc2n1 [Compound 190, 2-deuterio-6-fluoro-4-[3-(trifluoromethyl)-7,8-dihydro-5H-1,6-naphthyridin-6-yl]quinazoline] | 91 | 0.06
11 | COc1ccc2ncnc(N3CCc4ncc(Nc5ccnn5C)cc4C3)c2c1 [Compound 80, 6-(6-methoxyquinazolin-4-yl)-N-(2-methylpyrazol-3-yl)-7,8-dihydro-5H-1,6-naphthyridin-3-amine] | 98 | 0.5
12 | Cc1nc(N2CCc3ncc(-c4cnn(C)c4)cc3C2)c2cc(F)ccc2n1 [Compound 21, 6-fluoro-2-methyl-4-[3-(1-methylpyrazol-4-yl)-7,8-dihydro-5H-1,6-naphthyridin-6-yl]quinazoline] | 90 | 0.04
13 | Fc1ccc2ncnc(N3CCc4ncc(Oc5ccccc5F)cc4C3)c2c1 [Compound 113, 6-fluoro-4-[3-(2-fluorophenoxy)-7,8-dihydro-5H-1,6-naphthyridin-6-yl]quinazoline] | 69 | 0.16
14 | Cc1nc(N2CCc3ncc(-c4ccnn4C)cc3C2)c2cc(Cl)ccc2n1 [Compound 45, 6-chloro-2-methyl-4-[3-(2-methylpyrazol-3-yl)-7,8-dihydro-5H-1,6-naphthyridin-6-yl]quinazoline] | 98 | 0.06
15 | [2H]C1([2H])N(c2cnc3c(c2)CN(c2ncnc4cc(F)c(F)cc24)CC3)c2ccnn2C([2H])([2H])C1([2H])[2H] [Compound 282, 4-(3-(6,7-dihydropyrazolo[1,5-a]pyrimidin-4(5H)-yl-5,5,6,6,7,7-d6)-7,8-dihydro-1,6-naphthyridin-6(5H)-yl)-6,7-difluoroquinazoline] | 111 | 0.03
16 | Cc1cc(F)c(F)cc1-c1cnc2c(c1)CN(c1ncnc3ccc(F)cc13)CC2 [Compound 306, 4-(3-(4,5-difluoro-2-methylphenyl)-7,8-dihydro-1,6-naphthyridin-6(5H)-yl)-6-fluoroquinazoline] | 69 | 5.5
17 | COc1ccc2nc(Cl)nc(N3CCc4ncc(C(F)(F)F)cc4C3)c2c1 [Compound 166, 2-chloro-6-methoxy-4-[3-(trifluoromethyl)-7,8-dihydro-5H-1,6-naphthyridin-6-yl]quinazoline] | 70 | 0.42
18 | Fc1cc2ncnc(N3CCc4ncc(CC(F)(F)F)cc4C3)c2cc1F [Compound 286, 6,7-difluoro-4-(3-(2,2,2-trifluoroethyl)-7,8-dihydro-1,6-naphthyridin-6(5H)-yl)quinazoline] | 97 | 0.17
19 | C[C@H]1CN(c2ncnc3cc(F)c(F)cc23)Cc2cc(N3CCOCC3)cnc21 [Compound 261, (S)-4-(6-(6,7-difluoroquinazolin-4-yl)-8-methyl-5,6,7,8-tetrahydro-1,6-naphthyridin-3-yl)morpholine] | 79 | 0.44
20 | Fc1ncccc1Nc1cnc2c(c1)CN(c1ncnc3ccc(Cl)cc13)CC2 [Compound 71, 6-(6-chloroquinazolin-4-yl)-N-(2-fluoro-3-pyridyl)-7,8-dihydro-5H-1,6-naphthyridin-3-amine] | 82 | 0.14
21 | CC1CN(c2ncnc3ccc(F)cc23)Cc2cc(N3CCOCC3)cnc21 (stereo not drawn) [Compound 236, 4-(6-(6-fluoroquinazolin-4-yl)-8-methyl-5,6,7,8-tetrahydro-1,6-naphthyridin-3-yl)morpholine] | 86 | 0.14
22 | Fc1ccc2nc(C(F)(F)F)nc(N3CCc4ncc(-c5ccn(C6CC6)n5)cc4C3)c2c1 [Compound 65, 4-[3-(1-cyclopropylpyrazol-3-yl)-7,8-dihydro-5H-1,6-naphthyridin-6-yl]-6-fluoro-2-(trifluoromethyl)quinazoline] | 52 | 1.38
23 | Cc1ccc2nc(C)nc(N3CCc4ncc(-c5cnc(F)cc5C)cc4C3)c2c1 [Compound 318, 4-(3-(6-fluoro-4-methylpyridin-3-yl)-7,8-dihydro-1,6-naphthyridin-6(5H)-yl)-2,6-dimethylquinazoline] | 92 | 0.07
24 | Fc1cc2ncnc(N3CCc4ncc(N5CCCn6nccc65)cc4C3)c2cc1F [Compound 93, 4-[3-(6,7-dihydro-5H-pyrazolo[1,5-a]pyrimidin-4-yl)-7,8-dihydro-5H-1,6-naphthyridin-6-yl]-6,7-difluoro-quinazoline] | 109 | 0.05
25 | COc1cc2c(N3CCc4ncc(-c5cn(C)nc5C)cc4C3)nc(Cl)nc2cc1F [Compound 60, 2-chloro-4-[3-(1,3-dimethylpyrazol-4-yl)-7,8-dihydro-5H-1,6-naphthyridin-6-yl]-7-fluoro-6-methoxy-quinazoline] | 52 | 0.51
26 | Cc1ccc2ncnc(N3CCc4ncc(Nc5cccnc5F)cc4C3)c2c1 [Compound 97, N-(2-fluoro-3-pyridyl)-6-(6-methylquinazolin-4-yl)-7,8-dihydro-5H-1,6-naphthyridin-3-amine] | 95 | 0.08
27 | Fc1cc2c(N3CCc4ncc(C(F)(F)F)cc4C3)nc(N3CCOCC3)nc2cc1Cl [Compound 209, 4-[7-chloro-6-fluoro-4-[3-(trifluoromethyl)-7,8-dihydro-5H-1,6-naphthyridin-6-yl]quinazolin-2-yl]morpholine] | 50 | > 10
28 | C[C@H]1CN(c2ncnc3ccc(F)cc23)Cc2cc(N3CCOCC3)cnc21 [Compound 262, (S)-4-(6-(6-fluoroquinazolin-4-yl)-8-methyl-5,6,7,8-tetrahydro-1,6-naphthyridin-3-yl)morpholine] | 73 | 0.26
29 | Cc1nc(N2CCc3ncc(C(F)(F)F)cc3C2)c2cc(C#N)ccc2n1 [Compound 142, 2-methyl-4-[3-(trifluoromethyl)-7,8-dihydro-5H-1,6-naphthyridin-6-yl]quinazoline-6-carbonitrile] | 105 | 0.26
30 | Fc1cc2ncnc(N3CCc4ncc(N5CCCn6ccnc65)cc4C3)c2cc1F [Compound 277, 4-(3-(6,7-dihydroimidazo[1,2-a]pyrimidin-8(5H)-yl)-7,8-dihydro-1,6-naphthyridin-6(5H)-yl)-6,7-difluoroquinazoline] | 67 | 2.63
